Results from patent US20230090884A1, “DEVICE AND METHODS FOR ISOLATING EXTRACELLULAR MATRIX BODIES” (AUFBAU MEDICAL INNOVATIONS LIMITED, priority 2020, published 2023).

Experiment: Dose-response in microfluidic chip device: change in chip pressure (intraocular pressure model) after treatment of bovine vitreous humor
Conditions: 12.5% homogenized BVH in PBS incubated with compound at 37° C. for 1 hour; 7 ul injected; relative change in chip pressure recorded for 50 min; half-maximal response; read-out: EC50 for treatment of bovine vitreous humor (glaucoma model)
Protocol: The compound bivalirudin TFA was tested in bovine vitreous humor (BVH) in a microfluidic chip device. A solution of 25% homogenized BVH in PBS buffer was prepared and diluted with an equal amount of a solution of the compound, so that the total BVH concentration was 12.5%. The sample was vortexed and incubated at 37° C. for 1 hour. A control of either PBS buffer or PBS with 10% ethanol or DMSO was used and incubated with BVH under the same conditions.
The test compound-BVH solution was introduced into the reservoir of the microfluidic chip device and flow rate and pressure change were recorded. Various concentrations of the compound were tested for effects on the treatment of bovine vitreous humor. 7 ul of each test solution was injected into the microfluidic chip through a sample injector. Recording of the flow rate and pressure change was continued for 50 additional minutes after the sample injection. The relative change in chip pressure for the entire course of the experiment was obtained.
The EC50 value was taken as the point on the x-axis at which the logarithmic function of the micromolar concentration of the compound produced half-maximal response. […] The response was calculated by taking the absolute difference between the control and test value for each concentration. […]

| Substance | EC50 [nM] |
| --- | --- |
| bivalirudin TFA | 1.2 |
| polymyxin B sulfate | 4.3 |
